In ChEMBL document CHEMBL1149054, “Isolation and structure of harzianum A: a new trichothecene from Trichoderma harzianum” (J Nat Prod, 1994):
Activity calls are given as the source filed them. The calls are words filed in the database; no cut-off is given here.

Assays:
[1] = Cytotoxicity against BHK cells upto 1 ug/ml; format: cell-based, Mesocricetus auratus; conditions: hamster
Escherichia coli = assay: Antimicrobial activity against Escherichia coli at 1 mg/ml; format: functional, organism-based
Micrococcus luteus = assay: Antimicrobial activity against Micrococcus luteus at 1 mg/ml; format: functional, organism-based
Staphylococcus aureus = assay: Antimicrobial activity against Staphylococcus aureus at 1 mg/ml; format: functional, organism-based

Question: For `CC1=C[C@H]2O[C@@H]3C[C@@H](OC(=O)\C=C/C=C/C=C/C(=O)O)[C@](C)([C@@]2(C)CC1)[C@]31CO1` [HARZIANUM A], which Activity [1] is on record?
Answer: The Activity was “Non-toxic”.

Question: What about the Activity (Escherichia coli) of the same compound?
Answer: The Activity was “inactive”.

Question: What about the Activity (Micrococcus luteus) of the same compound?
Answer: Its Activity is “inactive”.

Question: What about the Activity (Staphylococcus aureus) of the same compound?
Answer: The Activity was “inactive”.
